Test results taken from paper PMC8883495, “N-terminal phosphorylation regulates the activity of glycogen synthase kinase 3 from Plasmodium falciparum” (Biochemical Journal, 2022).

Assays:
[1] = molecular target: T1, PfGSK3 (Plasmodium falciparum, UniProt O77344); experiment: KinaseGlo Plus luminescence ATP consumption (autophosphorylation); assay type: biochemical; details: 30 µM ATP, no peptide substrate; 20 mM MgCl2; pH 7.5; 30 °C
T1 construct: gene PF3D7_0312400
T1 sequence (O77344 1-440): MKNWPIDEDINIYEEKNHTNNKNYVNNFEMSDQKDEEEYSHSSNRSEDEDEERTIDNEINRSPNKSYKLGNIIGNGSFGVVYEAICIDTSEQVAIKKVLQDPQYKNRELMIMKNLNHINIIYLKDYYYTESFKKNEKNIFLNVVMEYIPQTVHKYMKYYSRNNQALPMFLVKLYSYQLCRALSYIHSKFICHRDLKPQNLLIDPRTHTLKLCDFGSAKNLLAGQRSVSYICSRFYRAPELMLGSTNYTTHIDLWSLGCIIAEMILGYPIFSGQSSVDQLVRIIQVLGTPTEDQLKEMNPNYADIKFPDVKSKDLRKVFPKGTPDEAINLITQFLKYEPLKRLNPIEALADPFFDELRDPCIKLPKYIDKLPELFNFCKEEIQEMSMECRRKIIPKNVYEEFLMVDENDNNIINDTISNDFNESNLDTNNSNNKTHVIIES

[2] = molecular target: T1, PfGSK3; experiment: nanoDSF thermal shift; assay type: binding; details: 1 mg/ml protein; 6 mM dATP in Figure 2B; concentration series in supplement; heating 1 °C/min

SMILES	KinaseGlo Plus luminescence ATP consumption (autophosphorylation) [1]	Tm [2]
Nc1ncnc2c1ncn2[C@@H]1O[C@H](COP(=O)(O)OP(=O)(O)OP(=O)(O)O)[C@@H](O)[C@H]1O [ATP]	The assay showed the consumption of ATP even in the absence of the substrate peptide	–
Nc1ncnc2c1ncn2[C@H]1C[C@H](O)[C@@H](COP(=O)(O)OP(=O)(O)OP(=O)(O)O)O1 [dATP]	–	dATP stabilizes PfGSK3, suggesting that it binds in the ATP binding pocket
